Measured values: patent US20090297645A1, “Fibroblast Activator and Method of Activating Fibroblast, Collagen Synthesis Promoter and Method of Promoting Collagen Synthesis, and Skin Antiaging Agent and Method of Preventing Aging of Skin” (priority 2005, published 2009)

Legend:
Normal human fibroblasts [1] = experiment: Test of fibroblast activation function (MTT formazan); format: cell-based; conditions: positive control, DMEM containing 5 percent FBS, 48 hours, control = 100, n = 5
Procedure: 3-(4,5-Dimethyl-2-thiazolyl)-2,5-diphenyl-2H-tetrazolium […] (MTT) cleaves NADPH or NADH produced in energy metabolic processes in mitochondria within cells to produce formazan. Thus, the quantity of formazan produced was adopted as an indicator of cell activation function.
Normal human fibroblasts were seeded onto a 96-well microplate at a cell density of 3.0×10^4 cells/well. After culturing for 24 hours in Dulbecco's modified eagle medium (DMEM) containing 1 percent fetal bovine serum (FBS), the medium was replaced with DMEM containing 1 percent FBS containing a freeze-dried product of grape sap in the concentration shown in Table 1. A positive control (PC) in the form of DMEM containing 5 percent FBS was employed. […]
The cells were washed, the formazan produced in the cells was dissolved in 2-propanol, and a microplate reader was employed to measure the absorbance at 550 nm and 650 nm. The difference between the two was calculated to evaluate the quantity of formazan generated within the cells. Cell activation function was denoted by an activation index (%) with the absorbance (ABS.) of cultivated cells to which no sample was added (control) being denoted as 100. […] The p value was determined to be significant when p<0.05.

Normal human fibroblasts [2] = experiment: Test of collagen synthesis promoting function of fibroblasts (type I collagen ELISA, BCA protein); format: cell-based; conditions: positive control, concentration not given, 48 hours
Procedure: The collagen synthesis of fibroblasts was evaluated by quantifying the amount of secreted type I collagen in culture supernatant by ELISA.
Normal human fibroblasts were seeded onto a 96-well microplate at a cell density of 3.0×10^4 cells/well. After culturing for 24 hours in DMEM containing 0.5 percent FBS, the medium was replaced with DMEM containing 0.5 percent FBS containing a freeze-dried product of grape sap in the concentration shown in Table 2. A PC in the form of magnesium ascorbyl phosphate (VCPMg) was employed. After 48 hours, the culture supernatant was collected and the amount of type I collagen was quantified by ELISA.
Culture supernatant and calibration curve-use type I collagen were placed in a 96-well plate and coated overnight at 4° C. […] Twenty minutes later, a microplate reader was employed to measure the absorbance at 405 nm. The quantity of collagen in the culture supernatant was calculated from a calibration curve measured with the same plate.
At the same time, the quantity of cell protein was quantified using BCA protein assay reagent (PIERCE). The quantity of collagen in the culture supernatant was divided by the quantity of protein to calculate the quantity of collagen per unit of protein, which was adopted as the quantity of collagen synthesized by the cells. […] The p value was determined to be significant when p<0.05. […]

SMILES: O=C1O[C@H]([C@@H](O)CO)C([O-])=C1OP(=O)([O-])[O-].O=C1O[C@H]([C@@H](O)CO)C([O-])=C1OP(=O)([O-])[O-].[Mg+2].[Mg+2].[Mg+2] [PC, magnesium ascorbyl phosphate]
- Activation index (%) Mean ± SD (Normal human fibroblasts [1]): 116.0 ± 2.9%
- Collagen amount (ng/μg protein) Mean ± SD (Normal human fibroblasts [2]): 32.9 ± 4.8 ng/μg protein
- Protein amount (μg) Mean ± SD (Normal human fibroblasts [2]): 11.2 ± 0.2 µg
